Laboratory results: PMC2685978, “Evaluation of Wuchereria bancrofti GST as a Vaccine Candidate for Lymphatic Filariasis” (PLoS Neglected Tropical Diseases, 2009)

Target: T1, rWbGST (Wuchereria bancrofti, UniProt Q86LL8)
T1 construct: about 28 kDa with tag
T1 sequence (Q86LL8 1-208): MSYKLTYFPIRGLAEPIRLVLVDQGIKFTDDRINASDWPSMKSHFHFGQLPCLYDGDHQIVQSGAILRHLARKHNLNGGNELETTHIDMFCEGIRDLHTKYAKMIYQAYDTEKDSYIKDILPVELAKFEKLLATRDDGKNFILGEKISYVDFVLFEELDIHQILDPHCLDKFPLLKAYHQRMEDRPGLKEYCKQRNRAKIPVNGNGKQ
Assay: spectrophotometric conjugation assay at […] nm
Assay type: biochemical
Conditions: 1.0 mM CDNB, 1.0 mM GSH, 100 mM phosphate, pH 6.5; only specific activity printed

O=[N+]([O-])c1ccc(Cl)c([N+](=O)[O-])c1 [CDNB, 1-chloro-2,4-dinitrobenzene]
spectrophotometric conjugation assay at 340 nm: GST enzyme activity was determined using CDNB and GSH substrates
